Patent US11331289B2, “Antimicrobial composition” (priority 2017, dated 2022)

How the values were obtained:
MRSA 16116 = experiment: Time-killing curve, inoculum 10^6 CFU/ml (MIC 0.5 μg/ml); type: cell-based, Staphylococcus aureus
Protocol: (§1) The objective of this study is to assess in vitro the time-killing curves of oxyclozanide against four strains of Methicillin-Resistant Staphylococcus from dogs.
(§2) Two Methicillin-Resistant Staphylococcus aureus (MRSA) and two Methicillin-Resistant Staphylococcus pseudintermedius (MRSP) isolated from the clinics have been tested.
(§3) The assessment of time-killing curves has been realized by a broth macrodilution method (Mueller-Hinton II Broth).
(§4) Oxyclozanide is diluted in (DMSO) into sterile tubes in order to obtain the following concentrations from 800 to 6.25 μg/ml. Those concentrations and stock standard solution are then diluted (1/10) in Mueller-Hinton II Broth in order to obtain the following concentrations from […] (See Table 2).
(§5) Each operation is performed under sterile conditions. Each working standard solution (10*the final active ingredient concentration) is distributed in tubes (1 ml, for a final volume of 10 ml after addition of 9 ml of inoculum). One tube without active ingredient is used as growth control (Concentration=0).
(§6) Bacterial isolates are sub-cultured from one cryobead on Columbia agar supplemented with 5% of blood. Pure cultures are incubated during 18-24 hours at 37° C. Three to five isolated colonies of similar appearance are selected from a previous culture and transferred into tubes containing 9 ml of Mueller-Hinton II Broth. The broth is incubated during 12-18 hours at 37° C. 0.5 to 1 ml of this broth is inoculated to another Mueller-Hinton II Broth 9 ml tube which is incubated during 3 to 4 hours at 37° C. to reach the exponential growth phase. The bacterial inoculum grown exponential phase is suspended to an optical density of McFarland standard scale 0.5 equivalent to a bacterial density of 10^8 CFU/ml and then adjusted to a concentration of about 5.10^5 CFU/ml as indicated by the guideline CLSI M26-A and to a second inoculum tested: 10^6 CFU/ml.
(§7) 9 ml of bacterial inoculum grown to exponential phase is added to 1 ml of active ingredient (or Mueller Hinton II Broth for the growth control). Tubes are incubated at 35° C. during 24 hours.
(§8) At times 0, 2, 4, 6 and 24 hours, 100 μl of broth of each tube is sampled and diluted in microplates:
(§9) Each well is re-cultured by streaking 10 μl on Columbia agar supplemented with 5% of blood. Plates are incubated at 37° C. during 18-24 hours incubation. Thus, residual bacterial concentrations are determined (CFU/ml). Results are expressed in log10 values of CFU/ml over-time in broth. Due to the procedure used, the minimal bacterial concentration that can be assessed is 10^2 CFU/ml.

MRSP 16127 = experiment: Time-killing curve, inoculum 5.10^5 CFU/ml (MIC 0.25 μg/ml); type: cell-based, Staphylococcus pseudintermedius
Protocol: as §1, §2, §3, §4, §5, §6, §7, §8, §9

MRSP 16125 = experiment: Time-killing curve, inoculum 10^6 CFU/ml (MIC 0.5 μg/ml); type: cell-based, Staphylococcus pseudintermedius
Protocol: as §1, §2, §3, §4, §5, §6, §7, §8, §9

O=C(Nc1cc(Cl)cc(Cl)c1O)c1c(O)c(Cl)cc(Cl)c1Cl [Oxyclozanide]
Counting results (MRSA 16116; 1 MIC, 0 h): 1.500E+06 CFU/ml
Counting results (MRSA 16116; 1 MIC, 2 h): 3.300E+05 CFU/ml
Counting results (MRSA 16116; 1 MIC, 4 h): 3.900E+05 CFU/ml
Counting results (MRSA 16116; 1 MIC, 6 h): 1.600E+06 CFU/ml
Counting results (MRSA 16116; 1 MIC, 24 h): 2.700E+07 CFU/ml
Counting results (MRSA 16116; 2 MIC, 0 h): 1.500E+06 CFU/ml
Counting results (MRSA 16116; 2 MIC, 2 h): 2.200E+04 CFU/ml
Counting results (MRSA 16116; 2 MIC, 4 h): 1.400E+03 CFU/ml
Counting results (MRSA 16116; 2 MIC, 6 h): 5.000E+02 CFU/ml
Counting results (MRSA 16116; 2 MIC, 24 h): 5.900E+05 CFU/ml
Counting results (MRSA 16116; 4 MIC, 0 h): 1.500E+06 CFU/ml
Counting results (MRSA 16116; 4 MIC, 2 h): 2.000E+02 CFU/ml
Counting results (MRSA 16116; 4 MIC, 4 h): 2.000E+02 CFU/ml
Counting results (MRSA 16116; 4 MIC, 6 h): 1.000E+02 CFU/ml
Counting results (MRSA 16116; 4 MIC, 24 h): 1.000E+02 CFU/ml
Counting results (MRSA 16116; 8 MIC, 0 h): 1.500E+06 CFU/ml
Counting results (MRSA 16116; 8 MIC, 2 h): 1.000E+02 CFU/ml
Counting results (MRSA 16116; 8 MIC, 4 h): 1.000E+02 CFU/ml
Counting results (MRSA 16116; 8 MIC, 6 h): 1.000E+02 CFU/ml
Counting results (MRSA 16116; 8 MIC, 24 h): 1.000E+02 CFU/ml
Counting results (MRSA 16116; 16 MIC, 0 h): 1.500E+06 CFU/ml
Counting results (MRSA 16116; 16 MIC, 2 h): 3.000E+02 CFU/ml
Counting results (MRSA 16116; 16 MIC, 4 h): 1.000E+02 CFU/ml
Counting results (MRSA 16116; 16 MIC, 6 h): 1.000E+02 CFU/ml
Counting results (MRSA 16116; 16 MIC, 24 h): 1.000E+02 CFU/ml
Time to obtain bactericidal effect at 4 MIC (MRSA 16116; 16116/10^6 CFU/ml, >=3 log10 decrease in CFU): 2 h
Counting results (MRSA 16116; ¼ MIC, 0 h): 1.500E+06 CFU/ml
Counting results (MRSA 16116; ¼ MIC, 2 h): 2.800E+06 CFU/ml
Counting results (MRSA 16116; ¼ MIC, 4 h): 2.600E+07 CFU/ml
Counting results (MRSA 16116; ¼ MIC, 6 h): 3.000E+08 CFU/ml
Counting results (MRSA 16116; ¼ MIC, 24 h): 3.900E+08 CFU/ml
Counting results (MRSA 16116; ½ MIC, 0 h): 1.500E+06 CFU/ml
Counting results (MRSA 16116; ½ MIC, 2 h): 3.000E+06 CFU/ml
Counting results (MRSA 16116; ½ MIC, 4 h): 3.600E+07 CFU/ml
Counting results (MRSA 16116; ½ MIC, 6 h): 2.300E+08 CFU/ml
Counting results (MRSA 16116; ½ MIC, 24 h): 3.100E+08 CFU/ml
Counting results (MRSP 16127; 1 MIC, 0 h): 3.600E+05 CFU/ml
Counting results (MRSP 16127; 1 MIC, 2 h): 2.300E+05 CFU/ml
Counting results (MRSP 16127; 1 MIC, 4 h): 1.900E+06 CFU/ml
Counting results (MRSP 16127; 1 MIC, 6 h): 4.600E+06 CFU/ml
Counting results (MRSP 16127; 1 MIC, 24 h): 8.100E+08 CFU/ml
Counting results (MRSP 16127; 2 MIC, 0 h): 3.600E+05 CFU/ml
Counting results (MRSP 16127; 2 MIC, 2 h): 2.000E+05 CFU/ml
Counting results (MRSP 16127; 2 MIC, 4 h): 2.400E+05 CFU/ml
Counting results (MRSP 16127; 2 MIC, 6 h): 2.400E+05 CFU/ml
Counting results (MRSP 16127; 2 MIC, 24 h): 6.600E+05 CFU/ml
Counting results (MRSP 16127; 4 MIC, 0 h): 3.600E+05 CFU/ml
Counting results (MRSP 16127; 4 MIC, 2 h): 1.400E+04 CFU/ml
Counting results (MRSP 16127; 4 MIC, 4 h): 4.400E+03 CFU/ml
Counting results (MRSP 16127; 4 MIC, 6 h): 3.500E+03 CFU/ml
Counting results (MRSP 16127; 4 MIC, 24 h): 1.300E+03 CFU/ml
Counting results (MRSP 16127; 8 MIC, 0 h): 3.600E+05 CFU/ml
Counting results (MRSP 16127; 8 MIC, 2 h): 1.600E+03 CFU/ml
Counting results (MRSP 16127; 8 MIC, 4 h): 4.000E+02 CFU/ml
Counting results (MRSP 16127; 8 MIC, 6 h): 1.000E+02 CFU/ml
Counting results (MRSP 16127; 8 MIC, 24 h): 1.000E+02 CFU/ml
Counting results (MRSP 16127; 16 MIC, 0 h): 3.600E+05 CFU/ml
Counting results (MRSP 16127; 16 MIC, 2 h): 3.000E+02 CFU/ml
Counting results (MRSP 16127; 16 MIC, 4 h): 1.000E+02 CFU/ml
Counting results (MRSP 16127; 16 MIC, 6 h): 1.000E+02 CFU/ml
Counting results (MRSP 16127; 16 MIC, 24 h): 1.000E+02 CFU/ml
Time to obtain bactericidal effect at 4 MIC (MRSP 16127; 16127/5.10^5 CFU/ml, >=3 log10 decrease in CFU): 6 to 24 h
Counting results (MRSP 16127; ¼ MIC, 0 h): 3.600E+05 CFU/ml
Counting results (MRSP 16127; ¼ MIC, 2 h): 3.900E+05 CFU/ml
Counting results (MRSP 16127; ¼ MIC, 4 h): 5.900E+06 CFU/ml
Counting results (MRSP 16127; ¼ MIC, 6 h): 3.400E+07 CFU/ml
Counting results (MRSP 16127; ¼ MIC, 24 h): 2.900E+10 CFU/ml
Counting results (MRSP 16127; ½ MIC, 0 h): 3.600E+05 CFU/ml
Counting results (MRSP 16127; ½ MIC, 2 h): 3.300E+05 CFU/ml
Counting results (MRSP 16127; ½ MIC, 4 h): 2.700E+06 CFU/ml
Counting results (MRSP 16127; ½ MIC, 6 h): 2.400E+07 CFU/ml
Counting results (MRSP 16127; ½ MIC, 24 h): 2.900E+10 CFU/ml
Counting results (MRSP 16125; 1 MIC, 0 h): 1.000E+06 CFU/ml
Counting results (MRSP 16125; 1 MIC, 2 h): 1.000E+06 CFU/ml
Counting results (MRSP 16125; 1 MIC, 4 h): 1.500E+05 CFU/ml
Counting results (MRSP 16125; 1 MIC, 6 h): 1.000E+05 CFU/ml
Counting results (MRSP 16125; 1 MIC, 24 h): 4.100E+06 CFU/ml
Counting results (MRSP 16125; 2 MIC, 0 h): 1.000E+06 CFU/ml
Counting results (MRSP 16125; 2 MIC, 2 h): 1.600E+03 CFU/ml
Counting results (MRSP 16125; 2 MIC, 4 h): 1.000E+02 CFU/ml
Counting results (MRSP 16125; 2 MIC, 6 h): 1.000E+02 CFU/ml
Counting results (MRSP 16125; 2 MIC, 24 h): 1.000E+02 CFU/ml
Counting results (MRSP 16125; 4 MIC, 0 h): 1.000E+06 CFU/ml
Counting results (MRSP 16125; 4 MIC, 2 h): 5.000E+02 CFU/ml
Counting results (MRSP 16125; 4 MIC, 4 h): 1.000E+02 CFU/ml
Counting results (MRSP 16125; 4 MIC, 6 h): 1.000E+02 CFU/ml
Counting results (MRSP 16125; 4 MIC, 24 h): 1.000E+02 CFU/ml
Counting results (MRSP 16125; 8 MIC, 0 h): 1.000E+06 CFU/ml
Counting results (MRSP 16125; 8 MIC, 2 h): 1.000E+02 CFU/ml
Counting results (MRSP 16125; 8 MIC, 4 h): 1.000E+02 CFU/ml
Counting results (MRSP 16125; 8 MIC, 6 h): 1.000E+02 CFU/ml
Counting results (MRSP 16125; 8 MIC, 24 h): 1.000E+02 CFU/ml
Counting results (MRSP 16125; 16 MIC, 0 h): 1.000E+06 CFU/ml
Counting results (MRSP 16125; 16 MIC, 2 h): 1.000E+02 CFU/ml
Counting results (MRSP 16125; 16 MIC, 4 h): 1.000E+02 CFU/ml
Counting results (MRSP 16125; 16 MIC, 6 h): 1.000E+02 CFU/ml
Counting results (MRSP 16125; 16 MIC, 24 h): 1.000E+02 CFU/ml
Time to obtain bactericidal effect at 4 MIC (MRSP 16125; 16125/10^6 CFU/ml, >=3 log10 decrease in CFU): 2 h
Counting results (MRSP 16125; ¼ MIC, 0 h): 1.000E+06 CFU/ml
Counting results (MRSP 16125; ¼ MIC, 2 h): 1.500E+06 CFU/ml
Counting results (MRSP 16125; ¼ MIC, 4 h): 1.000E+07 CFU/ml
Counting results (MRSP 16125; ¼ MIC, 6 h): 1.000E+08 CFU/ml
Counting results (MRSP 16125; ¼ MIC, 24 h): 2.600E+09 CFU/ml
Counting results (MRSP 16125; ½ MIC, 0 h): 1.000E+06 CFU/ml
Counting results (MRSP 16125; ½ MIC, 2 h): 1.800E+06 CFU/ml
Counting results (MRSP 16125; ½ MIC, 4 h): 2.800E+06 CFU/ml
Counting results (MRSP 16125; ½ MIC, 6 h): 3.400E+06 CFU/ml
Counting results (MRSP 16125; ½ MIC, 24 h): 1.900E+08 CFU/ml
